{"source": "patent US5168102A", "about": "“Endocrine manipulation to improve body composition of poultry” (priority 1990, dated 1992)", "key": {"[1]": {"experiment": "Example 1: body composition (proximate analysis of carcass)", "assay_type": "in vivo, broiler cockerels (Ross X Arbor Acre strain)", "excerpt": "The purpose of this study was to determine the effect manipulating blood levels of thyroid hormones and/or growth hormone on growth performance and body composition of broiler chickens. […] Purified natural chicken growth hormone (ncGH) was obtained from the Research and Education Center, Harbor-UCLA Medical Center, Torrance, Calif. […] The premix (200 g) was then used to prepare 50 kg batches of each experimental diet according to the formula for broiler-finisher ration described in Table 1. The diet containing 0.5% PTU was prepared by mixing 250 g of PTU into 49.75 kg of the basal ration (Table 1).\nBroiler cockerels (Ross X Arbor Acre strain) were raised to 3 weeks-of-age in a battery-brooder and then transferred to wire grow-out cages (4 birds/pen) held in two controlled-environment rooms (10 pens/room). Beginning at 3 weeks of age, eight birds (2 pens of 4 birds) were randomly assigned to each of 10 treatments. The chickens were provided the experimental diets and water ad libitum. […] For injection, the ncGH was reconstituted in sterile 0.025M sodium bicarbonate buffer (pH 9.8). The 10 treatments were administered for 21 days (i.e., from 3 to 6 weeks of age).\nMeasurement of body weight and feed consumption at weekly intervals allowed calculation of the average daily gain (ADG, g/bird/day), average daily feed consumption (ADFC, g/bird/day) and the feed-to-gain ratio (FIG, kg feed/kg gain) over the 21 day experimental period. Blood samples were taken each week (4, 5, and 6 weeks) just before (pre-injection) and 4 hours post-injection of ncGH. […] At the conclusion of the study, birds were killed and the carcasses frozen for proximate analysis. The frozen carcasses were ground in a meat grinder and aliquots of each ground carcass taken for determination of moisture, protein, fat and ash by established analytical procedures (Official Method of Analysis, Edition 13, W. Horwitz ed., Association of Official Analytical Chemist, Washington, D.C., 1980). Body composition data are presented as a percent of live weight at 6 weeks-of-age. Least squares regression analysis was used to test for significant differences (P<0.05) due treatment."}, "[2]": {"experiment": "Example 3: growth performance, graded doses of dietary T3", "assay_type": "in vivo, broiler cockerels", "conditions": "for Average Daily Gain: week no. 5 to 7", "experimental": "Day-old broiler cockerels were randomly assigned to 24 pens (5 birds/pen) in a battery brooder. The total duration of the bird management period lasted from 7 to 8 weeks. Hereafter, the end of the first week of life of the birds is referred to as week no. 1 (i.e. 7 days of life), the end of the second week as week no. 2, etc. At week no. 3, four birds from each pen were transferred to wire grow-out cages. […] 5 to week no. 7 (4 pens/treatment). Body weight and feed consumption were determined at weekly intervals. A 5 ml blood sample was obtained from each bird at week no. 7 and stored at -20° C. until assayed for plasma hormones.\nData were analyzed by analysis of variance for a randomized complete-block design. Data for ADG, ADFC and FTG were based on pen average. Unless otherwise indicated, data used for analysis was obtained from individual birds. Difference among treatments were tested by Fisher's protected LSD method."}, "[3]": {"experiment": "Example 2: plasma hormone concentrations", "assay_type": "in vivo, broiler cockerels (Ross X Arbor Acre)", "conditions": "vs CF+BI or CF+GH treatment", "experimental": "(§1) Forty-eight 3-week-old broiler cockerels (Ross X Arbor Acre) were randomly divided into four treatment groups that contained three pens of four birds. The birds were housed in a controlled-environment room under a 20 hour light/4 hour dark cycle with feed and water provided ad libitum.\n(§2) The preparation of ncGH used in this study was from the same lot used in Example 1.\n(§3) Body weights and feed consumption was determined at weekly intervals although the ADG, ADFC and FTG ratio was determined over the 21 day period. […] At the conclusion of the study (6 weeks-of-age), birds were killed and the abdominal fat removed and weighed. The liver and abdominal fat were returned to the carcass which was frozen for proximate analysis as described in […]"}, "[4]": {"conditions": "0.25 to 1 ppm in feed throughout entire growth cycle; cited from earlier work"}, "[5]": {"experiment": "Example 2: growth and feed efficiency, dietary T3 and ncGH injection", "assay_type": "in vivo, broiler cockerels (Ross X Arbor Acre)", "experimental": "as §1, §2, §3"}, "[6]": {"experiment": "Example 3: plasma hormone levels (RIA)", "assay_type": "in vivo, broiler cockerels", "description": "Day-old broiler cockerels were randomly assigned to 24 pens (5 birds/pen) in a battery brooder. The total duration of the bird management period lasted from 7 to 8 weeks. […] 3, four birds from each pen were transferred to wire grow-out cages. […] Body weight and feed consumption were determined at weekly intervals. A 5 ml blood sample was obtained from each bird at week no. 7 and stored at -20° C. until assayed for plasma hormones.\nEquilibrium, double antibodies radioimmunoassays (RIA) were used to determine plasma levels of chicken growth hormone (GH) according to Proudman, Proc. Soc. […] Plasma insulin was quantified by using nonequilibrium RIA described by McMurtry et al., Poult. […] Plasma level of insulin-like growth factor-I (IGF-I) was determined by heterologous RIA in accordance with McGuinness."}, "[7]": {"conditions": "Group 1, dietary, 6 weeks-of-age, N = 8"}, "[8]": {"conditions": "plasma thyroid hormone bioactivity 360-1200% of normal"}}, "note": "“Also recorded” adds a separate entry of the source."}
{"smiles": "N[C@@H](Cc1cc(I)c(Oc2ccc(O)c(I)c2)c(I)c1)C(=O)O", "note": "[T3, 3,3',5-triiodo-L-thyronine]", "values": [{"measurement": "Body composition: Ash", "setting": "[1]; [7]", "result": "2.19 ± .05 % BW"}, {"measurement": "Body composition: Fat", "setting": "[1]; [7]", "result": "10.1 ± 1.2", "unit": "% BW"}, {"measurement": "Body composition: Protein", "setting": "[1]; [7]", "result": "18.4 ± .22 % BW"}, {"measurement": "Body composition: Water", "setting": "[1]; [7]", "result": "68.6 ± 1.0", "unit": "% BW"}, {"measurement": "effect on fat deposition", "setting": "[1]; finishing phase", "result": "decreases fat deposition in chickens"}, {"measurement": "body fat content, reduction", "setting": "[1]; vs CF group", "result": 17, "unit": "%"}, {"measurement": "effect on body protein, water and ash", "setting": "[1]; vs CF group", "result": "body protein and water were slightly increased"}, {"measurement": "effect on ADFC and GTF", "setting": "[2]; 0.25 and 1.0 ppm", "result": "did not affect the ADFC and GTF"}, {"measurement": "effect on ADG", "setting": "[2]; 0.25 ppm", "result": "the decrease in 0.25 ppm-fed birds was not significant"}, {"measurement": "Average Daily Feed Consumption", "setting": "[2]; 0.25 ppm of feed", "result": "150.2 ± 10.0", "unit": "g"}, {"measurement": "Gain-To-Feed Ratio", "setting": "[2]; 0.25 ppm of feed", "result": "0.441 ± .014"}, {"measurement": "Average Daily Gain", "setting": "[2]; 0.25 ppm of feed", "result": "66.5 ± 6.0", "unit": "g"}, {"measurement": "Average Daily Feed Consumption", "setting": "[2]; 1.0 ppm of feed", "result": "139.0 ± 4.6", "unit": "g"}, {"measurement": "Gain-To-Feed Ratio", "setting": "[2]; 1.0 ppm of feed", "result": "0.409 ± 0.01"}, {"measurement": "Average Daily Gain", "setting": "[2]; 1.0 ppm of feed", "result": "57.0 ± 3.0", "unit": "g"}, {"measurement": "ADFC, reduction", "setting": "[2]; 4.0 ppm (p<0.05)", "result": 35, "unit": "%"}, {"measurement": "gain to feed ratio (GTF), reduction", "setting": "[2]; 4.0 ppm (p<0.05)", "result": 33, "unit": "%"}, {"measurement": "Average Daily Feed Consumption", "setting": "[2]; 4.0 ppm of feed", "result": "99.5 ± 1.7", "unit": "g"}, {"measurement": "Gain-To-Feed Ratio", "setting": "[2]; 4.0 ppm of feed", "result": "0.302 ± .013"}, {"measurement": "Average Daily Gain", "setting": "[2]; 4.0 ppm of feed", "result": "30.0 ± 1.1", "unit": "g"}, {"measurement": "body weight gain, depression", "setting": "[2]; [8]", "result": "≤ 57", "unit": "%"}, {"measurement": "feed consumption, depression", "setting": "[2]; [8]", "result": "≤ 35", "unit": "%"}, {"measurement": "average plasma T3 level, fold higher", "setting": "[3]", "result": 2.3, "unit": "times"}, {"measurement": "body weight gain, feed efficiency / growth performance", "setting": "[4]", "result": "reduced body weight gain and feed efficiency"}, {"measurement": "ADFC", "setting": "[5]; 1 ppm T3 and/or ncGH 100 μg/kg/day, 21 days", "result": "117.9 ± 0.8", "unit": "g/bird/day"}, {"measurement": "ADG", "setting": "[5]; 1 ppm T3 in feed and/or ncGH 100 μg/kg/day i.m., 3 to 6 weeks, mean ±SEM of 3 pens", "result": "52.6 ± 1.0", "unit": "g/bird/day"}, {"measurement": "effect on ADG, ADFC and FTG ratio", "setting": "[5]; 21 days", "result": "not affected"}, {"measurement": "glucagon secretion, increase", "setting": "[6]; 0.25 ppm", "result": 16, "unit": "%"}, {"measurement": "plasma T3 level, fold elevation", "setting": "[6]; 0.25 ppm", "result": 2.1, "unit": "fold"}, {"measurement": "plasma insulin, reduction", "setting": "[6]; 0.25 ppm", "result": 27, "unit": "%"}, {"measurement": "I/G ratio, reduction", "setting": "[6]; 0.25 ppm (p<0.05)", "result": 31, "unit": "%"}, {"measurement": "I/G Ratio (molar)", "setting": "[6]; 0.25 ppm of feed", "result": "0.81 ± .20"}, {"measurement": "plasma GH", "setting": "[6]; 0.25 ppm of feed", "result": "2.0 ± 0.4", "unit": "ng/mL"}, {"measurement": "plasma Glucagon", "setting": "[6]; 0.25 ppm of feed", "result": "656 ± 75", "unit": "pg/mL"}, {"measurement": "plasma IGF-I", "setting": "[6]; 0.25 ppm of feed", "result": "100.7 ± 2.9", "unit": "ng eg/ml"}, {"measurement": "plasma Insulin", "setting": "[6]; 0.25 ppm of feed", "result": "772 ± 155", "unit": "pg/mL"}, {"measurement": "plasma T4", "setting": "[6]; 0.25 ppm of feed", "result": "6.3 ± 0.6", "unit": "ng/mL"}, {"measurement": "effect on plasma IGF-1 level", "setting": "[6]; 0.25 to 4.0 ppm", "result": "only reduced (p<0.05) by the 4.0 ppm level"}, {"measurement": "I/G molar ratio, reduction", "setting": "[6]; 1 or 4 ppm (p<0.05)", "result": "70-76%"}, {"measurement": "glucagon secretion, increase", "setting": "[6]; 1.0 ppm (p<0.05)", "result": 44, "unit": "%"}, {"measurement": "plasma insulin, reduction", "setting": "[6]; 1.0 ppm (p<0.05)", "result": 60, "unit": "%"}, {"measurement": "I/G Ratio (molar)", "setting": "[6]; 1.0 ppm of feed", "result": "0.35 ± .06"}, {"measurement": "plasma GH", "setting": "[6]; 1.0 ppm of feed", "result": "2.1 ± 0.4", "unit": "ng/mL"}, {"measurement": "plasma Glucagon", "setting": "[6]; 1.0 ppm of feed", "result": "816 ± 64", "unit": "pg/mL"}, {"measurement": "plasma IGF-I", "setting": "[6]; 1.0 ppm of feed", "result": "97.7 ± 6.3", "unit": "ng eg/ml"}, {"measurement": "plasma Insulin", "setting": "[6]; 1.0 ppm of feed", "result": "426 ± 65", "unit": "pg/mL"}, {"measurement": "plasma T4", "setting": "[6]; 1.0 ppm of feed", "result": "6.2 ± 0.6", "unit": "ng/mL"}, {"measurement": "plasma T3 level, fold elevation", "setting": "[6]; 4 ppm", "result": 12.6, "unit": "fold"}, {"measurement": "glucagon secretion, increase", "setting": "[6]; 4.0 ppm (p<0.05)", "result": 46, "unit": "%"}, {"measurement": "plasma insulin, reduction", "setting": "[6]; 4.0 ppm (p<0.05)", "result": 68, "unit": "%"}, {"measurement": "Plasma T3 level (control group = 100% of normal)", "setting": "[6]; 4 ppm in feed", "result": "~ 1254%"}, {"measurement": "I/G Ratio (molar)", "setting": "[6]; 4.0 ppm of feed", "result": "0.28 ± .08"}, {"measurement": "plasma GH", "setting": "[6]; 4.0 ppm of feed", "result": "1.8 ± 0.2", "unit": "ng/mL"}, {"measurement": "plasma Glucagon", "setting": "[6]; 4.0 ppm of feed", "result": "824 ± 61", "unit": "pg/mL"}, {"measurement": "plasma IGF-I", "setting": "[6]; 4.0 ppm of feed", "result": "58.8 ± 8.2", "unit": "ng eg/ml"}, {"measurement": "plasma Insulin", "setting": "[6]; 4.0 ppm of feed", "result": "344 ± 92", "unit": "pg/mL"}, {"measurement": "plasma T4", "setting": "[6]; 4.0 ppm of feed", "result": "5.1 ± 0.8", "unit": "ng/mL"}, {"measurement": "effect on plasma GH levels", "setting": "[6]; all dietary T3 levels", "result": "decreased (p<0.05); also recorded: decrease plasma GH levels"}, {"measurement": "plasma T4 level, decrease", "setting": "[6]; regardless of dose level (p<0.05)", "result": 67, "unit": "%"}]}
